Among the data in patent publication EP4775208A1, “USE OF PRMT5 INHIBITOR IN TREATMENT OF TUMORS OR CANCERS” (Apeiron Therapeutics (Hong Kong) Ltd., priority 2023, dated 2025) are IC50 values, retold here.

As a reminder, the IC50 is the midpoint of a concentration-inhibition curve. Higher therefore signals a need for much substance.

Format in all cases: cell-based
The subject of one assay is U87MG MTAP(-/-) cells. The experiment in a line: Inhibition of proliferation of U87MG MTAP(-/-) cells (CellTiter-Glo). The following applies: cell proliferation, 6 days. The protocol:
Test 7: Assay for Inhibitory Activity of Compounds against U87MG MTAP(-/-) Cell Proliferation
Materials and Cells: The U87MG MTAP(-/-) cell line was purchased from ATCC (USA). Cell culture media, fetal bovine serum (FBS), and penicillin-streptomycin were purchased from Thermo Fisher Scientific (USA). 384-well plates were purchased from PerkinElmer (USA). The CellTiter-Glo assay kit was purchased from Promega (USA).
Cell Culture: U87MG MTAP(-/-) cells were cultured in a medium supplemented with 10% fetal bovine serum (FBS) and 1% penicillin-streptomycin at 37°C with 5% CO2. Only cells in the logarithmic growth phase were used for experiments.
Cell Proliferation Inhibition Assay: The antiproliferative activity of the compounds against U87MG MTAP(-/-) cells was assessed using the CellTiter-Glo assay kit. Cell suspensions were adjusted to the appropriate density and seeded into 384-well plates at a volume of 40 µL per well, then incubated overnight at 37°C with 5% CO2. Compounds (40 nL) were added to each well to achieve final concentrations ranging from 0 to 10,000 nM (starting concentration 10,000 nM, 3-fold serial dilutions, 10 dose points), with a final DMSO concentration of […]. The cell plates were incubated at 37°C with 5% CO2 for 6 days. Subsequently, 40 µL of CellTiter-Glo reagent was added to measure cell viability. Paclitaxel was used as a control compound.
(Cellular ATP, detected with luciferase, serves as a proxy for viable cell number.)

Assay [1] deals with HCT-116 MTAP(-/-) deficient cells. The experiment in a line: Inhibition of proliferation of HCT-116 MTAP(-/-) deficient cells (Cell-Titer Glo). The following applies: 8 days. In short, it runs like this: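 Cells in log-phase growth, RPMI-1640 with 10% FBS, seeded and left overnight at 37°C, 5% CO2. Compound tested at 0–10,000 nM (10 points, 3-fold, 0.1% DMSO) for 8 days at 37°C, 5% CO2. Viability read by CellTiter-Glo luminescence.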

Assay [2] concerns HCT-116 MTAP wild-type cells. The experiment in a line: Inhibition of proliferation of HCT-116 MTAP wild-type cells (Cell-Titer Glo). To be noted: 8 days. The essentials:
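MTAP wild-type HCT-116 cells were seeded, cultured overnight and then exposed to compound from 10,000 nM down in a 10-point, 3-fold series (0.1% DMSO). Plates were incubated 8 days at 37°C, 5% CO2. Proliferation was read by Cell-Titer Glo viability luminescence.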

Consider “4-amino-N-methyl-N-(6-(trifluoromethyl)-2, 3-dihydrobenzo[b]thi ophen-3-yl)imidazo[1, 5-a]quinoxaline-8-car boxamide [Example 43]”, for which the IC50 with U87MG MTAP(-/-) cells is 322 nM; in assay [1], 22.4 nM; in assay [2], 2990 nM.
`C[C@H]1OC[C@@H](N(C)C(=O)c2ccc3nc(N)c4cncn4c3c2)c2ccc(F)cc21` (single isomer, unassigned) [Example 96]: the IC50 came to 91.1 nM with U87MG MTAP(-/-) cells (Homo sapiens, U-87 MG, 144 h); 6.6 nM in assay [1] (Homo sapiens, HCT-116, 192 h); 1260 nM in assay [2] (Homo sapiens, HCT-116, 192 h).
With `C[C@H]1OC[C@@H](N(C)C(=O)c2cc3c(cn2)nc(N)c2cncn23)c2ccc(C(F)(F)F)cc21` (single isomer, unassigned) [Example 98], the IC50 in the assay with U87MG MTAP(-/-) cells (Homo sapiens, U-87 MG, 144 h) worked out at 14.2 nM; in assay [1] (Homo sapiens, HCT-116, 192 h), 1.4 nM; in assay [2] (Homo sapiens, HCT-116, 192 h), 114 nM.
The molecule `CN(C(=O)c1ccc2nc(N)c3cncn3c2c1)[C@@H]1COc2cc(S(F)(F)(F)(F)F)ccc21` (single isomer, unassigned) [Example 104] displayed an IC50 with U87MG MTAP(-/-) cells (Homo sapiens, U-87 MG, 144 h) of 28.8 nM.
Turning to `CN(C(=O)c1cc2c(cc1F)nc(N)c1cncn12)[C@@H]1CCOc2cc(-c3ccnn3C)ccc21` [Example 115, (R)-4-amino-7-fluoro-N-methyl-N-(7-(1-methyl-1H-pyrazol-5-yl)chroman-4-yl)imidazo[1,5-a]quinoxaline-8-carboxamide], the IC50 is 84.3 nM in assay [1] (Homo sapiens, HCT-116, 192 h) and greater than 10000 nM in assay [2] (Homo sapiens, HCT-116, 192 h).
With `Cc1cc(-c2ccc3c(c2)OCC[C@H]3N(C)C(=O)c2cc3c(cc2F)nc(N)c2cncn23)on1` [Example 116, (R)-4-amino-7-fluoro-N-methyl-N-(7-(3-methylisoxazol-5-yl)chroman-4-yl)imidazo[1,5-a]quinoxaline-8-carb oxamide], the IC50 was 109 nM in assay [1] (Homo sapiens, HCT-116, 192 h) and greater than 10000 nM in assay [2] (Homo sapiens, HCT-116, 192 h).
As for `CN(C(=O)c1ccc2nc(N)c3cnc(C4CC4)n3c2c1)[C@@H]1COc2cc(C(F)(F)F)ccc21` [Example 118, (S)-4-amino-1-cyclopro pyl-N-methyl-N-(6-(trifluoromethyl)-2,3-dihydrobenzofuran-3-yl)imida zo[1,5-a]quinoxaline-8-carboxamide], the IC50 in assay [1] (Homo sapiens, HCT-116, 192 h) is 2930 nM; in assay [2] (Homo sapiens, HCT-116, 192 h), greater than 10000 nM.
For the molecule `Nc1nc2cc(F)c(C(=O)N(C3CC3)C3COc4cc(N5CCOCC5)ccc43)cc2n2cncc12` (stereo not shown) [Example 121, 4-amino-N-cyclopropyl-7-fluoro-N-(6-mor pholino-2,3-dihydrobenzofuran-3-yl)imidaz o[1,5-a]quinoxaline-8-carboxamide], the IC50 in assay [1] (Homo sapiens, HCT-116, 192 h) is 73.7 nM; in assay [2] (Homo sapiens, HCT-116, 192 h), greater than 10000 nM.
With `CN(C(=O)c1cc2c(cn1)nc(N)c1cncn12)C1CCc2ccccc21` (stereo not shown) [Example 125, 4-amino-N-(2,3-dihydro-1H-inden-1-yl)-N-methylimidazo[1,5-a] pyrido[3,4-e]pyrazine-8-carboxamide], the IC50 in assay [1] (Homo sapiens, HCT-116, 192 h) was 2450 nM; in assay [2] (Homo sapiens, HCT-116, 192 h) it was greater than 10000 nM.
With `Nc1nc2ncc(C(=O)N(C3CC3)C3COc4cc(C(F)(F)F)ccc43)cc2n2cncc12` (stereo not shown) [Example 126, 4-amino-N-cyclopropyl-N-(6-(trifluoromethyl)-2,3-dihydrobenzof uran-3-yl)imidazo[1,5-a]pyrido[2,3-e]pyrazine-8-carboxamide], the IC50 was 592 nM in assay [1] (Homo sapiens, HCT-116, 192 h) and greater than 20000 nM in assay [2] (Homo sapiens, HCT-116, 192 h).
In the case of `CN(C(=O)c1ccc2nc(N)c3c(Br)ncn3c2c1)[C@@H]1COc2cc(C(F)(F)F)ccc21` [Example 127, (S)-4-amino-3-bromo-N-methyl-N-(6-(trifluoromethyl)-2,3-dihydrobenzofuran-3-yl)imidazo[1,5-a]quinoxaline-8-carboxamide], the IC50 in assay [1] (Homo sapiens, HCT-116, 192 h) came to 100 nM; in assay [2] (Homo sapiens, HCT-116, 192 h), 9900 nM.
For `CN(C(=O)c1ccc2nc(N)c3c(CO)ncn3c2c1)[C@@H]1COc2cc(C(F)(F)F)ccc21` [Example 128, (S)-4-amino-3-(hydroxymethyl)-N-methyl-N-(6-(trifluoromethyl)-2,3-dihydrobenzofuran-3-yl)imidazo[1,5-a]quinoxaline-8-carboxamide], the IC50 is 26 nM in assay [1] (Homo sapiens, HCT-116, 192 h) and greater than 10000 nM in assay [2] (Homo sapiens, HCT-116, 192 h).
The matching figures for `CN(C(=O)c1cc2c(cc1F)nc(N)c1cncn12)C1CSc2cc(C(F)(F)F)ccc21` (stereo not shown) [Example 129, 4-amino-7-fluoro-N-methyl-N-(6-(trifluoromethyl)-2,3-dihydrobenzo[b]thiophen-3-yl) imidazo[1,5-a]quinox aline-8-carboxamide]: 14.5 nM and 2680 nM.
Turning to `CN(C(=O)c1ccc2nc(N)c3c(C#N)ncn3c2c1)[C@@H]1COc2cc(C(F)(F)F)ccc21` [Example 131, (S)-4-amino-3-cyano-N-methyl-N-(6-(trifluoromethyl)-2,3-dihydrobenzofuran-3-yl)imidazo[1,5-a]quinoxaline-8-carboxamide], the IC50 in assay [1] (Homo sapiens, HCT-116, 192 h) was greater than 3000 nM; in assay [2] (Homo sapiens, HCT-116, 192 h) it was greater than 10000 nM.
The corresponding values for `CN(C(=O)c1ccc2nc(N)c3c(C(N)=O)ncn3c2c1)[C@@H]1COc2cc(C(F)(F)F)ccc21` [Example 132, (S)-4-amino-N8-methyl-N8-(6-(trifluoromethyl)-2,3-dihydrobenzofuran-3-yl)imidazo[1,5-a]quinoxaline-3,8-dicarboxamide] are greater than 3000 nM and greater than 10000 nM.
Consider “(R)-4-amino-7-fluoro-N-methyl-N-(7-(1-(tri fluoromethyl)-1H-pyr azol-4-yl)chroman-4-ylimidazo[1,5-a]quin oxaline-8-carboxamid e [Example 113]”, for which the 50% inhibitory concentration (IC50) in assay [1] is 88.1 nM; in assay [2], greater than 10000 nM.
Consider “(R)-4-amino-N-(6-bromo-2,3-dihydrobenzofuran-3-yl)-N-cyclopropylimidazo[1,5-a]quinoxaline-8-carboxamide [Example 81]”, for which the values for the IC50 in assay [1] and in assay [2] were 1790 nM and 2360 nM, respectively.
With “(R)-4-amino-N-(6-cya no-2,3-dihydrobenzof uran-3-yl)-N-cyclopro pylimidazo[1,5-a]quin oxaline-8-carboxamid e [Example 91]”, the IC50 is 2180 nM in assay [1] and greater than 20000 nM in assay [2].
As to “(R)-4-amino-N-cyclo propyl-N-(6-(trifluoro methyl)-2,3-dihydrob enzofuran-3-yl)imidaz o[1,5-a]pyrido[3,4-e]p yrazine-8-carboxamid e [Example 87]”, the figures for the IC50 in assay [1] and in assay [2] were 9030 nM and 10800 nM, respectively.
The matching figures for “(R)-4-amino-N-cyclo propyl-N-(6-(trifluoro methyl)-2,3-dihydrob enzofuran-3-yl)imidaz o[1,5-a]quinoxaline-8 -carboxamide [Example 83]”: 2640 nM and 4700 nM.
For “(R)-4-amino-N-methy 1-N-(6-(pentafluoro-16 -sulfaneyl)-2,3-dihydr obenzofuran-3-yl)imi dazo[1,5-a]quinoxalin e-8-carboxamide [Example 103]”, the values for the IC50 in assay [1] and in assay [2] were 931 nM and 6260 nM, respectively.
As to “(R)-4-amino-N-methy 1-N-(6-(trifluoromethy 1)-2,3-dihydrofuro[2,3 -b]pyridin-3-yl)imida zo[1,5-a]quinoxaline-8-carboxamide [Example 89]”, the IC50 in assay [1] was greater than 3000 nM; in assay [2] it was greater than 10000 nM.
In the case of “(S)-4-amino-N-(6-(cy clopropylsulfonyl)-2,3 -dihydrobenzo[b]thio phen-3-yl)-N-methyli midazo[1,5-a]quinoxa line-8-carboxamide [Example 133]”, the IC50 was 71.4 nM in assay [1] and greater than 10000 nM in assay [2].
The matching figures for “(S)-4-amino-N-(6-bromo-2,3-dihydrobenzofuran-3-yl)-N-cyclopropylimidazo[1,5-a]quinoxaline-8-carboxamide [Example 82]”: 52.9 nM and 1920 nM.
On to “(S)-4-amino-N-(6-chl oro-2,3-dihydrobenzo furan-3-yl)-N-methyli midazo[1,5-a]quinoxa line-8-carboxamide [Example 70]”, for which the results for the IC50 in assay [1] and in assay [2] were 54 nM and 3890 nM, respectively.
The matching figures for “(S)-4-amino-N-(6-cya no-2,3-dihydrobenzof uran-3-yl)-N-cyclopro pylimidazo[1,5-a]quin oxaline-8-carboxamid e [Example 92]”: 46.6 nM and 4750 nM.
Take “(S)-4-amino-N-cyclop ropyl-N-(6-(trifluoro methyl)-2,3-dihydrob enzofuran-3-yl)imidaz o[1,5-a]pyrido[3,4-e]p yrazine-8-carboxamid e [Example 88]”: the concentration for half-maximal inhibition (IC50) in assay [1] was determined as 24.1 nM; in assay [2], 1850 nM.
Consider “(S)-4-amino-N-methy 1-N-(6-(trifluoromethy 1)-2,3-dihydrofuro[2,3 -b]pyridin-3-yl)imida zo[1,5-a]quinoxaline-8-carboxamide [Example 90]”, for which the IC50 was 36.4 nM in assay [1] and greater than 10000 nM in assay [2].
